{"source": "ChEMBL document CHEMBL1135202", "about": "“Design, synthesis and evaluation of 4-imidazolylflavans as new leads for aromatase inhibition” (Bioorg Med Chem Lett, 2002)", "set-up_in_all_cases": "species or system Placenta", "key": {"Aromatase [1]": {"biological_target": "T1, Aromatase (Homo sapiens, UniProt P11511)", "T1 sequence (P11511 whole entry)": "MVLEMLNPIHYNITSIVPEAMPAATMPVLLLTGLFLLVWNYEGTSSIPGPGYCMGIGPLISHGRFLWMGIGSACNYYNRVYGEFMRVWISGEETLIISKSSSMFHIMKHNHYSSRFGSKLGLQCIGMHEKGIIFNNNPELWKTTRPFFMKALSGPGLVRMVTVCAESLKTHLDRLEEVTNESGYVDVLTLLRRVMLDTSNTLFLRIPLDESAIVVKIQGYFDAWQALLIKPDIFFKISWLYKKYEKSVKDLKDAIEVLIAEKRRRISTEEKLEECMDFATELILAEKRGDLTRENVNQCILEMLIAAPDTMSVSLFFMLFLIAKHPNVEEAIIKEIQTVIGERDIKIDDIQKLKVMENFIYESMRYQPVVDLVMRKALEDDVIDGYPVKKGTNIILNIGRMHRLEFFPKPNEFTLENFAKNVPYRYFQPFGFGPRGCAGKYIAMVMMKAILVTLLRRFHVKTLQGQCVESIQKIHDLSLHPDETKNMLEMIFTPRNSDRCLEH", "experiment": "Relative potency for aromatase inhibition in human placental microsomes compared to aminoglutethimide"}, "Aromatase [2]": {"biological_target": "T1, Aromatase", "experiment": "Relative potency for aromatase inhibition in human placental microsomes compared to flavanone"}, "Aromatase [3]": {"biological_target": "T1, Aromatase", "experiment": "Inhibition of aromatase activity in human placental microsomes"}}, "note": "pIC50: −log10 of the molar value.", "data": [{"smiles": "Oc1ccc2c(c1)OC(c1ccccc1)CC2n1ccnc1", "note": "(stereo not drawn)", "values": [{"measurement": "Relative potency", "setting": "Aromatase [1]", "value": 127}, {"measurement": "Relative potency", "setting": "Aromatase [2]", "value": 93}, {"measurement": "pIC50", "setting": "Aromatase [3]", "value": 7.39}]}]}
